The subject of the experiment is Syk. Put plainly: Syk phosphorylation at Y519/520 in PEMs. The experiment is classed as cell-based, mouse. The protocol:
FIGS. 5A-5H include data related to our experiments on the role of Syk in phagocytic activation. […] PEMs were treated with LPS and cytokines in the presence of various inhibitors. After washing, inhibitor-free macrophages were tested for phagocytosis toward RBCs. […] PEMs treated with LPS and activating cytokines, or together with IL-10, were tested for total Syk and phosphorylated Syk (Syk^pY, specific at Y519/520). FIG. 5D describes PMA-induced macrophages phagocytosis toward RBCs. WT and SIRPα^−/− PEMs were treated with PMA (37° C., 30 min) before testing phagocytosis toward RBCs. FIG. 5E is a schematic depiction of PKC-Syk-mediated macrophage phagocytic activation toward self. […] Left: Inhibition of Syk by piceatannol and R406 prevented PMA-induced phagocytic activation. […] Error bars are ±SEM. ***P<0.001 vs. the respective controls. […] LPS-treated WT PEMs were further briefly treated with pervanadate before testing for phagocytosis toward RBCs. Error bars are ±SEM. ***P<0.001 vs. the respective controls. […] Data presented in each panel represent at least three independent experiments with n≥4, if applicable.
Multiple pharmacological inhibitors were tested for their effects on LPS and cytokine-induced activation of macrophage phagocytosis toward self. […] For example, inhibition of JAKs blocked IL-6 and IL-17, but not LPS and TNFα, for activation of PEM phagocytosis. […]

As to lipopolysaccharide [LPS], the “Syk phosphorylation (Syk^PY, Y519/520)” value is reported as “increases in Syk^PY”.

For the origin of these results see patent US11026972B2, “Methods for generating macrophages with enhanced cancer phagocytosis” (Georgia State University Research Foundation, Inc., priority 2016, dated 2021).
